The text below walks through data of patent US9855268B2, “Triazolo[4,5-d]pyrimidine derivatives” (Merck Patent GmbH, priority 2013, dated 2018).

In test [1] the target is GSK3α(h) (Homo sapiens, UniProt P49840). Briefly: GSK3α radiometric kinase assay (33P-ATP, phospho GS2 peptide). It is filed as biochemical. The settings on record: read-out: IC50 GSK3α (enzyme assay). As to the method: GSK3α(h) is incubated with 8 mM MOPS pH 7,0, 0,2 mM EDTA, 20 μM
[…](p)EDEEE (phosphor GS2 peptide), 10 mM Mg-acetate and [gamma-33P-ATP](specific activity approx. 500 cpm/Pmol, concentration as required). The reaction is initiated by the addition of the MgATP. After incubation for 40 minutes at the room temperature, the Reaction is stopped by the addition of 3% phosphoric acid solution. 10 μL of reaction is then spotted onto a P30 filtermat and washed three times for 5 minutes in 50 mM phosphoric acid and once in methanol prior to drying and scintillation counting.

Test [2] addresses T1, GCN2 (Homo sapiens, UniProt Q9P2K8). Briefly: Cellular assay of GCN2 activity (phospho-eIF2alpha immunocytochemistry after tryptophanol). It is filed as cell-based. Details: endogenous in cells; host or cells: U2OS. The settings on record: Human U2OS cells, 2 h compound, 600 μM tryptophanol 30 min. As to the method:
Cellular Assay for the Determination of Compound Activities
Human U2OS cells (2000 cells/well) are seeded into 384-well plates and incubated for 20 hours.
The next day, the cells are treated with the test compounds and incubated for 2 hours. Then, tryptophanol, at a final concentration of 600 μM, is added to the cells and those are incubated for 30 minutes.
The analysis of cellular GCN2 activities is done by immunocytochemistry.
Briefly, cells are fixated on the well surfaces by formaldehyde and permeabilised with Triton X-100.
The analysis and quantification of phosphorylated GCN2 is done by scanning the plates in the Acumen Explorer system (TTPLabtech). The obtained data are normalised against the untreated control wells (DMSO only) and expressed as % effect values. The determination of IC50 values is done by using the Graph Pad Prism software.
Target sequence in this assay (Q9P2K8 whole entry): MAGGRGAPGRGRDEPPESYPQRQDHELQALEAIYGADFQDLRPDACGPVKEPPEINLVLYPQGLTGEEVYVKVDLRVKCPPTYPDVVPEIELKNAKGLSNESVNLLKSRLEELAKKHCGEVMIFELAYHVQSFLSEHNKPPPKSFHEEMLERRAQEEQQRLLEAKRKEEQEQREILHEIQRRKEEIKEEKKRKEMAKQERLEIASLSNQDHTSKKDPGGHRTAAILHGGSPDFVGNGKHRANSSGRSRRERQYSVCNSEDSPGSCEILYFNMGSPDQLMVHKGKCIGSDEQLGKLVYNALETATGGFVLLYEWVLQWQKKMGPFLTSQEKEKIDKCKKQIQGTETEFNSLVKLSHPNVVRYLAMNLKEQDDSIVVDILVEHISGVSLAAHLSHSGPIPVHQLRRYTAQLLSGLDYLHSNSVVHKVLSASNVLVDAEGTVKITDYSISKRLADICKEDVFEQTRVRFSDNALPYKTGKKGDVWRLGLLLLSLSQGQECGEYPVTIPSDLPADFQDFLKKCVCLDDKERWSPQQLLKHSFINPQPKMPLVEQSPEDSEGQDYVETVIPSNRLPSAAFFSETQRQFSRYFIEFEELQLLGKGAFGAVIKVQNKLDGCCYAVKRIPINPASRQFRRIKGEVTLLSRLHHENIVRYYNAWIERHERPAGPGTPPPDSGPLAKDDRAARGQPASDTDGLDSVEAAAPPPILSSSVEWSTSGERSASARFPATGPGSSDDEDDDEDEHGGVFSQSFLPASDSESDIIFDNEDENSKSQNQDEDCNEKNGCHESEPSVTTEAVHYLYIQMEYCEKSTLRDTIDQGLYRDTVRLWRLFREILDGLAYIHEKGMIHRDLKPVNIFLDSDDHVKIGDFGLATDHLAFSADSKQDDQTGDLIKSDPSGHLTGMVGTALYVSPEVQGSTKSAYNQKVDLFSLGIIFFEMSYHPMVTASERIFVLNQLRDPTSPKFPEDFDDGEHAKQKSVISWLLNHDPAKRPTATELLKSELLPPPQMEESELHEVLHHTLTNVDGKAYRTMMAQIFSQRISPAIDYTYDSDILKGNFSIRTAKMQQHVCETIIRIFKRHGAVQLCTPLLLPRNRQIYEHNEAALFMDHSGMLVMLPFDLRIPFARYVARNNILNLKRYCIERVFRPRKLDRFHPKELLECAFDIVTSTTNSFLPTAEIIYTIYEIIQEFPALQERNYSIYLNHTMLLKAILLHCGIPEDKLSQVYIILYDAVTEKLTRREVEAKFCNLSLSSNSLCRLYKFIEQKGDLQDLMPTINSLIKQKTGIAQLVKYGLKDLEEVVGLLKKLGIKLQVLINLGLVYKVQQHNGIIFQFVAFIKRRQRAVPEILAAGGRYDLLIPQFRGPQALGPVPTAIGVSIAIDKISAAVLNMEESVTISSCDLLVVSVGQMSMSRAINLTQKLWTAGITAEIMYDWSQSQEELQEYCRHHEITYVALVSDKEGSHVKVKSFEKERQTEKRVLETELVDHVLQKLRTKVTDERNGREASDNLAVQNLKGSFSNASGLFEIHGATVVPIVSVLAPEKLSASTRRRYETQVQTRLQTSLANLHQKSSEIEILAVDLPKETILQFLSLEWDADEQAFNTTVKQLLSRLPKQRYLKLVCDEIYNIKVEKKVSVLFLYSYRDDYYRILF

Test [3] concerns the target T1, GCN2. Briefly: GCN2 enzyme assay (TR-FRET Lanthascreen, GFP-eIF2alpha phosphorylation). It is filed as biochemical. The settings on record: 10 μM ATP, 80 nM GFP-eIF2a, 30 nM GCN2. The essentials:
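Phosphorylation of GFP-eIF2alpha (80 nM) by GCN2 run at room temperature with 10 μM ATP. After EDTA quench, product quantified by Lanthascreen TR-FRET (antibody–GFP complex, 340 nm excitation).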
Target sequence in this assay (Q9P2K8 whole entry, species assumed): as the sequence (Q9P2K8 whole entry) above

Bounds are passed on as bounds.

Chain of GSK3α(h) (P49840 whole entry): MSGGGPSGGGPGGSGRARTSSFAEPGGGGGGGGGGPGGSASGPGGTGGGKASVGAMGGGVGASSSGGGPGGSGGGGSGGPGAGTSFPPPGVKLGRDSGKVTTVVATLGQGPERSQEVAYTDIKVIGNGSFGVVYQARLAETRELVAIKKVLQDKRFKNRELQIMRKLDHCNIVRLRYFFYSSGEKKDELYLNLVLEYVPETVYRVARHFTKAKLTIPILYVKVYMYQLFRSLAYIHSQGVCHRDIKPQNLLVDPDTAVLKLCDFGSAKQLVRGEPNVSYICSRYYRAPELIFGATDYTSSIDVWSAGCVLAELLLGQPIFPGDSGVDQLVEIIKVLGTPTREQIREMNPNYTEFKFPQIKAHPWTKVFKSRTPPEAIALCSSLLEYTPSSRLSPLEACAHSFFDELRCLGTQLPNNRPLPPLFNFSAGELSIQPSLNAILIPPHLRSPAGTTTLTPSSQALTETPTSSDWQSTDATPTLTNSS

As for `Cc1ccc2cc(-n3nnc4cnc(N[C@@H]5CC[C@@H](O)C5)nc43)ccc2n1` (relative stereo) [A202, (trans)-3-[3-(2-methyl-quinolin-6-yl)-3H-[1,2,3]triazolo[4,5-d]pyrimidin-5-ylamino]-cyclopentanol], the IC50 was under 1 µM in test [1], 1 to 5 µM in test [2] and under 1 µM in test [3].

For the compound `N#CCCn1cc(-c2ccc(-n3nnc4cnc(N[C@@H]5CC[C@@H](O)C5)nc43)cc2)cn1` (relative stereo) [A214, 3-(4-{4-[5-(trans-3-hydroxy-cyclopentylamino)-[1,2,3]triazolo[4,5-d]pyrimidin-3-yl]-phenyl}-pyrazol-1-yl)-propionitrile], the IC50 in test [1] was under 1 µM; in test [2], 1 to 5 µM; in test [3], under 1 µM.

Consider `NC1CC[C@@H](Nc2ncc3nnn(-c4ccc(-c5cnn(CCO)c5)cc4)c3n2)C1` (stereo in doubt) [A257, 2-(4-{4-[5-((1R,3S)-3-amino-cyclopentylamino)-[1,2,3]triazolo[4,5-d]pyrimidin-3-yl]-phenyl}-pyrazol-1-yl)-ethanol], for which the figures for the IC50 in test [1], in test [2] and in test [3] were under 1 µM, 5 to 10 µM and under 1 µM, respectively.

As to `COc1ccc(-n2nnc3cnc(N[C@@H]4CC[C@H](CO)C4)nc32)cc1` [A112, {(1S,3R)-3-[3-(4-methoxy-phenyl)-3H-[1,2,3]triazolo[4,5-d]pyrimidin-5-ylamino]-cyclopentyl}-methanol], the results for the IC50 in test [1], in test [2] and in test [3] were under 1 µM, 1 to 5 µM and under 1 µM, respectively.

With `COc1ccc(-n2nnc3cnc(N[C@@H]4CC[C@@H](CO)C4)nc32)cc1` [A114, {(1R,3R)-3-[3-(4-methoxy-phenyl)-3H-[1,2,3]triazolo[4,5-d]pyrimidin-5-ylamino]-cyclopentyl}-methanol], the 50% inhibitory concentration (IC50) in test [1] is under 1 µM; in test [2], 1 to 5 µM; in test [3] it was under 1 µM.

In the case of `COCCn1cc(-c2ccc(-n3nnc4cnc(N[C@@H]5CC[C@@H](N)C5)nc43)cc2)cn1` [A123, (1R,3R)—N-(3-{4-[1-(2-methoxy-ethyl)-1H-pyrazol-4-yl]-phenyl}-3H-[1,2,3]triazolo[4,5-d]pyrimidin-5-yl)-cyclopentane-1,3-diamine], the IC50 in test [1], in test [2] and in test [3] was under 1 µM throughout.

Take `N[C@H]1CC[C@H](Nc2ncc3nnn(-c4ccc(OC5CCOCC5)cc4)c3n2)CC1` [A127, N-{3-[4-(tetrahydro-pyran-4-yloxy)-phenyl]-3H-[1,2,3]triazolo[4,5-d]pyrimidin-5-yl}-trans-cyclohexane-1,4-diamine]: the IC50 in test [1] is under 1 µM; in test [2], 1 to 5 µM; in test [3], under 1 µM.

Turning to `NC(=O)[C@@H]1CC[C@@H](Nc2ncc3nnn(-c4ccc(I)cc4)c3n2)C1` [A170, (1R,3R)-3-[3-(4-iodo-phenyl)-3H-[1,2,3]triazolo[4,5-d]pyrimidin-5-ylamino]-cyclopentanecarboxylic acid amide], the 50% inhibitory concentration (IC50) in test [2] was 1 to 5 µM; in test [3] it was under 1 µM.

Regarding `Cn1cc2ccc(-n3nnc4cnc(N[C@@H]5CC[C@@H](C(N)=O)C5)nc43)cc2n1` [A185, (1R,3R)-3-[3-(2-methyl-2H-indazol-6-yl)-3H-[1,2,3]triazolo[4,5-d]pyrimidin-5-ylamino]-cyclopentanecarboxylic acid amide], the IC50 in test [2] was 5 to 10 µM; in test [3], under 1 µM.

With `Cn1cc2cc(-n3nnc4cnc(N[C@@H]5CC[C@@H](C(N)=O)C5)nc43)ccc2n1` [A186, (1R,3R)-3-[3-(2-methyl-2H-indazol-5-yl)-3H-[1,2,3]triazolo[4,5-d]pyrimidin-5-ylamino]-cyclopentanecarboxylic acid amide], the IC50 is 1 to 5 µM in test [2] and under 1 µM in test [3].

Consider `Cc1ccc2cc(-n3nnc4cnc(N[C@@H]5CC[C@H](C(N)=O)C5)nc43)ccc2n1` [A191, (1S,3R)-3-[3-(2-methyl-quinolin-6-yl)-3H-[1,2,3]triazolo[4,5-d]pyrimidin-5-ylamino]-cyclopentanecarboxylic acid amide], for which the IC50 was 1 to 5 µM in test [2] and under 1 µM in test [3].

Take `Cc1ccc2cc(-n3nnc4cnc(N[C@@H]5CC[C@@H](O)C5)nc43)ccc2n1` [A208, (1R,3R)-3-[3-(2-methyl-quinolin-6-yl)-3H-[1,2,3]triazolo[4,5-d]pyrimidin-5-ylamino]-cyclopentanol]: the IC50 was 1 to 5 µM in test [2] and under 1 µM in test [3].

For the compound `O=c1cccnn1CCn1cc(-c2ccc(-n3nnc4cnc(N[C@@H]5CC[C@@H](O)C5)nc43)cc2)cn1` [A236, 2-[2-(4-{4-[5-((1R,3R)-3-hydroxy-cyclopentylamino)-[1,2,3]triazolo[4,5-d]-pyrimidin-3-yl]-phenyl}-pyrazol-1-yl)-ethyl]-2H-pyridazin-3-one], the IC50 is 5 to 10 µM in test [2] and under 1 µM in test [3].

In the case of `COc1ccc(-n2nnc3cnc(N[C@@H]4CC[C@@H](C(=O)N(C)C)C4)nc32)cc1` [A243, (1R,3R)-3-[3-(4-methoxy-phenyl)-3H-[1,2,3]triazolo[4,5-d]pyrimidin-5-ylamino]-cyclo pentanecarboxylic acid dimethylamide], the IC50 was 1 to 5 µM in test [2] and under 1 µM in test [3].

Take `CCOc1ccc(-n2nnc3cnc(N[C@@H]4CC[C@@H](C(=O)N(C)CC(C)(C)O)C4)nc32)cc1` [A251, (1R,3R)-3-[3-(4-ethoxy-phenyl)-3H-[1,2,3]triazolo[4,5-d]pyrimidin-5-ylamino]-cyclopentanecarboxylic acid (2-hydroxy-2-methyl-propyl)-methyl-amide]: the IC50 in test [2] is 5 to 10 µM; in test [3] it was under 1 µM.

Take `Cc1ccc2cc(-n3nnc4cnc(N[C@@H]5CC[C@@H](C(=O)NCCC(C)(C)O)C5)nc43)ccc2n1` [A253, (1R,3R)-3-[3-(2-methyl-quinolin-6-yl)-3H-[1,2,3]triazolo[4,5-d]pyrimidin-5-ylamino]-cyclopentanecarboxylic acid (3-hydroxy-3-methyl-butyl)-amide]: the IC50 in test [2] and in test [3] was under 1 µM each time.

On to `N[C@H]1CC[C@H](Nc2ncc3nnn(-c4ccc(-c5cnn(CCO)c5)cc4)c3n2)CC1` [A256, 2-(4-{4-[5-(trans-4-amino-cyclohexylamino)-[1,2,3]triazolo[4,5-d]pyrimidin-3-yl]-phenyl}-pyrazol-1-yl)-ethanol], for which the values for the IC50 in test [2] and in test [3] were 5 to 10 µM and under 1 µM, respectively.

For `NC(=O)[C@@H]1CC[C@@H](Nc2ncc3nnn(-c4ccc(O)cc4)c3n2)C1` [A276, (1R,3R)-3-[3-(4-hydroxy-phenyl)-3H-[1,2,3]triazolo[4,5-d]pyrimidin-5-ylamino]-cyclopentanecarboxylic acid amide], the values for the half-maximal inhibitory concentration (IC50) in test [2] and in test [3] were 5 to 10 µM and under 1 µM, respectively.

On to `COC(=O)CCOc1ccc(-n2nnc3cnc(N[C@@H]4CC[C@@H](C(N)=O)C4)nc32)cc1` [A292, 3-{4-[5-((1R,3R)-3-carbamoyl-cyclopentylamino)-[1,2,3]triazolo[4,5-d]pyrimidin-3-yl]-phenoxy}-propionic acid methyl ester], for which the 50% inhibitory concentration (IC50) in test [2] was 1 to 5 µM; in test [3], under 1 µM.

In the case of `Cn1cc(CNc2ncc3nnn(-c4ccc5ncccc5c4)c3n2)cn1` [B1, (1-methyl-1H-pyrazol-4-ylmethyl)-(3-quinolin-6-yl-3H-[1,2,3]triazolo[4,5-d]pyrimidin-5-yl)-amine], the figures for the 50% inhibitory concentration (IC50) in test [2] and in test [3] were 5 to 10 µM and under 1 µM, respectively.
